# From patent US20160102052A1, “Use of Cysteamine in Treating Infections caused by Yeasts/Moulds” (priority 2014, published 2016)
# Where two headings read alike, the source gives them in different places.
# Test system: Exophiala dermatitidis CA01
# Assay: Broth microdilution chequerboard analysis of Lynovex (NM001) in combination with clinical antifungals
# Type: cell-based
# Details: for MIC: Exophiala dermatitidis, CA01, 72 h, antifungal in isolation, read-out: Antifungal MIC100; for MIC / Antifungal MIC100 in Combination: 72 h; for MIC / Antifungal MIC100 in Combination / Antifungal MIC50 in Combination: 35° C.; for FICI: antifungal with Lynovex (NM001), <0.5 Synergy, 0.5-1 Additive, >1 Indifference; for Antifungal MIC100 in Combination / Antifungal MIC50 in Combination: in combination with Lynovex (NM001)
# Method: The aim of the experiment was to determine the effect of Lynovex (NM001) on the antifungal drug susceptibility of Exophiala dermatitidis CA01. Microtitre plates were prepared following CLSI recommendations for broth microdilution chequerboard method. These plates contained a serial doubling dilution of Lynovex (NM001) combined with serial doubling dilutions of antifungals drugs; Fluconazole, Itraconazole, Caspofungin and Amphotericin B. […] These were incubated at 35° C. and read at 72 h, 96 h, 120 h and 144 h on the BioTek plate reader. […] Three independent E. dermatitidis CA01 cultures were grown on PDA slope for 6 days at 35° C. • 7. Cultures were removed from incubator. 2 ml sterile 0.15M NaCl added to the overnight culture and cells harvested from the surface of the agar. Cells placed in fresh bijou tube. • 8. The cultures were allowed to rest for up to 10 minutes, allowing any hyphae to settle to the bottom. The top layer of conidia was removed into fresh bijou. Hyphae were discarded. • 9. […] This is continued to F12 where 100 μl is removed and discarded. • f. This dilution series was repeated in rows G-H for the remaining 2 cultures • g. Plate read at OD530 on BioTek • h. […] This preparation step occurs in two parts. First, Lynovex (NM001) and antifungals are serially diluted, down and across microtitre plates, respectively. Equal volumes of Lynovex and antifungal are then combined in a fresh microtitre plate, prior to inoculation. […] Stock solutions of Lynovex and antifungals were prepared at 4× desired concentrations. The plate layout at the end of this protocol is the final concentration in the plate following the combination of Lynovex and antifungals and the addition of the inocula. […] All other wells contain 150 μl sterile dH2O. • 9. Serial doubling dilutions are carried out from A to B whereby 150 μl is removed from A and placed into B and mixed well. Then take 150 μl B and place in C and mix well. This is repeated down to row G where the final 150 μl is discarded. […] The same procedure is repeated for the other 4 antifungals, carrying the dilutions across the plate i.e. […] At the final dilution in column 10, the final 150 μl is discarded. […] Inoculating Plates with E. dermatitidis CA01 • 6. Add 100 μl (total volume 200 μl) of the prepared E. dermatitidis CA01 culture to the all wells on the plate except wells H12. […] H12 will contain 100 μl water and 100 μl 2×RPMI-1640 alone, constituting an uninoculated control. • 8. The plate is read in the BioTek at OD530. • 9. Plates are then placed in a plastic box containing a Petri dish of water, sealed and incubated at 35° C. The presence of the water in the dish or on the tissue provides and environment of relatively high humidity. • 10. OD530 is then read at 72 h, 96 h, 120 h and 144 h and raw data processed using Microsoft Excel. • 11. Fractional Inhibitory Concentration (FIC) Index values are generated using MIC100 for 72 h data and MIC50 for later time points using the following formula: […]
Structure (SMILES),MIC (GEOMEAN) [µg/mL],MIC (MEAN) [µg/mL],MIC (Range) [µg/mL],"FICI (GEOMEAN, MIC50, 96 h)","FICI (GEOMEAN, MIC50, 120 h)","FICI (GEOMEAN, MIC50, 144 h)","FICI (GEOMEAN, MIC100, 72 h)",Antifungal MIC100 in Combination (GEOMEAN) [µg/mL],"Antifungal MIC50 in Combination (GEOMEAN, 96 h) [µg/mL]","Antifungal MIC50 in Combination (GEOMEAN, 120 h) [µg/mL]","Antifungal MIC50 in Combination (GEOMEAN, 144 h) [µg/mL]","FICI (MEAN, MIC50, 96 h)","FICI (MEAN, MIC50, 120 h)","FICI (MEAN, MIC50, 144 h)","FICI (MEAN, MIC100, 72 h)",Antifungal MIC100 in Combination (MEAN) [µg/mL],"Antifungal MIC50 in Combination (MEAN, 96 h) [µg/mL]","Antifungal MIC50 in Combination (MEAN, 120 h) [µg/mL]","Antifungal MIC50 in Combination (MEAN, 144 h) [µg/mL]",Antifungal MIC100 in Combination (Range) [µg/mL],other results
CC[C@H](C)C[C@H](C)CCCCCCCCC(=O)N[C@H]1C[C@@H](O)[C@@H](NCCN)NC(=O)[C@@H]2[C@@H](O)CCN2C(=O)[C@H]([C@H](O)CCN)NC(=O)[C@H]([C@H](O)[C@@H](O)c2ccc(O)cc2)NC(=O)[C@@H]2C[C@@H](O)CN2C(=O)[C@H]([C@@H](C)O)NC1=O [Caspofungin],25,26,15.6 to 31.2,0.48 (4),0.24 (4),0.41 (3),0.25 (1),2.0,11.84,1.95,3.91,0.58 (4),0.27 (4),0.52 (3),0.25 (1),2.0,14.84,4.20,6.51,2.0,"Antifungal MIC50 in Combination (Range, 96 h): 3.91 to 31.25 µg/mL; Antifungal MIC50 in Combination (Range, 120 h): 0.49 to 15.625 µg/mL; Antifungal MIC50 in Combination (Range, 144 h): 0.23 µg/mL"
OC(Cn1cncn1)(Cn1cncn1)c1ccc(F)cc1F [Fluconazole],250,250,250,0.44 (6),0.41 (4),0.53 (4),0.42 (3),25,35,44,63,0.45 (6),0.42 (4),0.55 (4),0.43 (3),34,51,59,98,7.81 to 62.5,"Antifungal MIC50 in Combination (Range, 96 h): 7.81 to 125 µg/mL; Antifungal MIC50 in Combination (Range, 120 h): 15.63 to 125 µg/mL; Antifungal MIC50 in Combination (Range, 144 h): 15.63 to 250 µg/mL"
CCC(C)n1ncn(-c2ccc(N3CCN(c4ccc(OCC5COC(Cn6cncn6)(c6ccc(Cl)cc6Cl)O5)cc4)CC3)cc2)c1=O (stereo not drawn) [Itraconazole],4.5,4.7,4 to 8,0.27 (7),0.18 (5),0.18 (3),0.18 (5),0.14,0.37,0.19,0.20,0.32 (7),0.20 (5),0.19 (3),0.19 (5),0.24,0.74,0.33,0.27,0.03 to 0.5,"Antifungal MIC50 in Combination (Range, 96 h): 0.06 to 2 µg/mL; Antifungal MIC50 in Combination (Range, 120 h): 0.06 to 1 µg/mL; Antifungal MIC50 in Combination (Range, 144 h): 0.06 to 0.5 µg/mL"
